From US20230181482A1, “LIPIDS FOR DELIVERY OF NUCLEIC ACID SEGMENTS” (AstraZeneca AB, priority 2021, published 2023)
Values belong to the compound of their own block, whether it stands above or below them.

How the values were obtained:
[1] = mRNA encapsulation efficiency of LNP formulations (Quant-it Ribogreen assay with Triton-X100); type: physicochemical
Protocol: (§1) A solution of eGFP mRNA (purchased from TriLink Biotechnologies) in citrate buffer was prepared by mixing mRNA dissolved in MilliQ-water, 100 mM citrate buffer (pH 3) and MilliQ-water to give a solution of 50 mM citrate. Lipid solution in ethanol (99.5%) was prepared with four different lipid components: ionizable lipid (see Table 1); cholesterol (Sigma-Aldrich); DSPC (distearoyl phosphatidyl choline, Avanti Polar Lipids Inc); and a polymer-conjugated lipid (see Table 1). The ratio of lipids in all experiments was ionizable lipid/cholesterol/DSPC/polymer-conjugated lipid (50/38.5/10/1.5 mol %). The total concentration of lipids in all experiments was 12.5 mM.
(§2) The mRNA and lipid solutions were mixed in a NanoAssemblr (Precision Nanosystems, Vancouver, BC, Canada) microfluidic mixing system at a mixing ratio of Aq:EtOH=3:1 and a constant flow rate of 12 mL/min. The mRNA in citrate buffer solution was prepared such that, at the time of mixing the ratio between the nitrogen atoms on the ionizable lipid and phosphorus atoms (N/P ratio) on the mRNA chain was either 3:1 or 6:1 (see Table 1).
The final mRNA concentration and encapsulation efficiency percentage (% EE) was measured by Quant-it Ribogreen Assay Kit (ThermoFischer Scientific Inc.) using Triton-X100 to disrupt the LNPs. The mRNA encapsulation efficiency was determined according to the following equation: […]

[2] = LNP particle size by dynamic light scattering (Zetasizer Nano ZS); type: physicochemical
Protocol: as §1, §2
The first 0.2-0.35 mL and the last 0.05-0.1 mL of the LNP suspension prepared were discarded while the rest of the volume was collected as the sample fraction. The size of the mRNA lipid nanoparticles was determined by dynamic light scattering measurements using a Zetasizer Nano ZS from Malvern Instruments Ltd, giving directly the z-average particle diameter. The number-weighted particle size distributions and averages were calculated using a particle refractive index of 1.45.

Female BALB/c mice = test: eGFP expression in the liver at 24 hours after intravenous administration of LNP formulations to mouse (ELISA); type: in vivo; details: LNP N/P 3:1, DMPE-PEG2000
Text: Female BALB/c mice were purchased (SPF (Beijing) Laboratory Animal Technology Co. Ltd.) and on arrival were caged in groups of 4 on corncob bedding, with normal diet and were provided tap drinking water ad libitum that was purified and autoclaved before being offered to the animal. The environment was maintained at a target temperature of […] and relative humidity of 40-80%, with a 12-hour light/dark cycle. Animals were acclimatised to the housing conditions for at least 7 days prior to any experimental procedures and were approximately 6-8 weeks of age at the start of dosing
Animals were assigned to respective groups such that the mean body weights for each treatment groups will be equal. N=4 for each treatment group.
Formulations 1, 3, 4, 5, and 6 from Example 58 were each dosed intravenously: Each mouse was removed from its cage and restrained, and then dosed with a slow IV bolus of a formulation in the lateral tail vein at a dose […] of 0.3 mg/kg.
All animals were sacrificed 24 hours after dosing and flowing blood sampling the liver for the animals dosed by the IV route and the liver and muscle at the dose site for the IM dosed animals were harvested for eGFP analysis by ELISA.
Additional LNP formulations were prepared according to the procedures described in Example 46. These formulations were tested using the same protocol as described herein. The results of eGFP expression in the liver at 24 hours after intravenous administration of the formulations were summarized in Tables 3, 4, 5 and 6 below.

[3] = Table 6, N/P ratio 3:1, DMPE-PEG2000
[4] = Table 4, N/P ratio 3:1, DMPE-PEG2000
[5] = Table 5, N/P ratio 3:1, DMPE-PEG2000
[6] = Table 1, LNP with eGFP mRNA, N/P ratio 3:1, DMPE-PEG2000
[7] = Table 1, number-average particle diameter, N/P ratio 3:1, DMPE-PEG2000
[8] = Table 1, z-average particle diameter, N/P ratio 3:1, DMPE-PEG2000
[9] = Table 1, LNP with eGFP mRNA, N/P ratio 6:1, DMG-PEG2000
[10] = Table 1, number-average particle diameter, N/P ratio 6:1, DMG-PEG2000
[11] = Table 1, z-average particle diameter, N/P ratio 6:1, DMG-PEG2000

% EE [1, 4]: 97%
<d>N (nm) [2, 4]: 80 nm
<d>Z (nm) [2, 4]: 129 nm
Compound: CCCCCCCC(CCCCCCC)COC(=O)CCCCCCC(CCCCCCC(=O)OCC(CCCCCCC)CCCCCCC)NC1CC2(COC2)C1 [Compound 28, Bis(2-heptylnonyl) 8-((2-oxaspiro[3.3]heptan-6-yl)amino)pentadecanedioate]
Liver eGFP protein (ng/g tissue) (Female BALB/c mice; Table 4, 0.3 mg/kg): 9557.1 ng/g tissue

% EE [1, 6]: 96%
<d>N (nm) [2, 7]: 58 nm
<d>Z (nm) [2, 8]: 73 nm
Compound: CCCCCC(CCCCC)CCOC(=O)CCCCCCCC(CCCCCCCC(=O)OCCC(CCCCC)CCCCC)NC1CCOCC1 [Compound 2, bis(3-pentyloctyl) 9-[(oxan-4-yl)amino]heptadecanedioate]

% EE [1, 4]: 88%
<d>N (nm) [2, 4]: 60 nm
<d>Z (nm) [2, 4]: 75 nm
Compound: CCCCCC(CCCCC)CCOC(=O)CCCCCC(CCCCCC(=O)OCCC(CCCCC)CCCCC)NC1CCOCC1 [Compound 45, bis(3-pentyloctyl) 7-((tetrahydro-2H-pyran-4-yl)amino)tridecanedioate]
Liver eGFP protein (ng/g tissue) (Female BALB/c mice; Table 4, 0.3 mg/kg): 9082.2 ng/g tissue

% EE [1, 6]: 96%
<d>N (nm) [2, 7]: 62 nm
<d>Z (nm) [2, 8]: 81 nm
Compound: CCCCCC(CCCCC)CCOC(=O)CCCCCCCC(CCCCCCCC(=O)OCCC(CCCCC)CCCCC)NCC1CCOCC1 [Compound 4, bis(3-pentyloctyl) 9-(((tetrahydro-2H-pyran-4-yl)methyl)amino)heptadecanedioate]

% EE [1, 6]: 99%
<d>N (nm) [2, 7]: 58 nm
<d>Z (nm) [2, 8]: 79 nm
Compound: CCCCCC(CCCCC)CCOC(=O)CCCCCCCC(CCCCCCCC(=O)OCCC(CCCCC)CCCCC)NCC1CCOC1 (centres unmarked) [Compound 3, bis(3-pentyloctyl) 9-(((tetrahydrofuran-3-yl)methyl)amino)heptadecanedioate]

% EE [1, 6]: 99%
<d>N (nm) [2, 7]: 54 nm
<d>Z (nm) [2, 8]: 70 nm
Compound: CCCCCC(CCCCC)CCOC(=O)CCCCCCCC(CCCCCCCC(=O)OCCC(CCCCC)CCCCC)NCC1COC1 [Compound 5, bis(3-pentyloctyl) 9-((oxetan-3-ylmethyl)amino)heptadecanedioate]

More lines, now with the values behind:

Compound: CCCCCCCCC(CCCCCCCC)OC(=O)CCCCCCCC(CCCCCCCCCC(=O)OC(C)CCCCCC)NC1CC2(COC2)C1 (centres unmarked) [Compound 55, 1-(heptadecan-9-yl) 19-(octan-2-yl) 9-((2-oxaspiro[3.3]heptan-6-yl)amino)nonadecanedioate]
% EE [1, 3]: 93%
<d>N (nm) [2, 3]: 62 nm
<d>Z (nm) [2, 3]: 77 nm
Liver eGFP protein (ng/g tissue) (Female BALB/c mice; Table 6, 0.3 mg/kg): 18695.5 ng/g tissue

Compound: CCCCCCCCC(C)OC(=O)CCCCCCCC(CCCCCCCC(=O)OC(CCCCCCCC)CCCCCCCC)NCC1CCOCC1 (centres unmarked) [Compound 35, 1-(decan-2-yl) 17-(heptadecan-9-yl) 9-(((tetrahydro-2H-pyran-4-yl)methyl)amino)heptadecanedioate]
% EE [1, 5]: 95%
<d>N (nm) [2, 5]: 59 nm
<d>Z (nm) [2, 5]: 77 nm
Liver eGFP protein (ng/g tissue) (Female BALB/c mice; Table 5, 0.3 mg/kg): 5974.6 ng/g tissue

Compound: CCCCCCCCC(C)OC(=O)CCCCCCC(CCCCCCC(=O)OCC(CCCCCCC)CCCCCCC)NC1CC2(COC2)C1 (centres unmarked) [Compound 29, 1-(decan-2-yl) 15-(2-heptylnonyl) 8-((2-oxaspiro[3.3]heptan-6-yl)amino)pentadecanedioate]
% EE [1, 4]: 90%
<d>N (nm) [2, 4]: 51 nm
<d>Z (nm) [2, 4]: 71 nm
Liver eGFP protein (ng/g tissue) (Female BALB/c mice; Table 4, 0.3 mg/kg): 1288.4 ng/g tissue

Compound: CCCCCCCCCOC(=O)CCCCCCCN(CCO)CCCCCCCC(=O)OC(CCCCCCCC)CCCCCCCC [MOD5, heptadecan-9-yl 8-((2-hydroxyethyl)(8-(nonyloxy)-8-oxooctyl)amino)octanoate, reference compound]
% EE [1, 9]: 98%
<d>N (nm) [2, 10]: 47 nm
<d>Z (nm) [2, 11]: 66 nm

Compound: CCCCCCCCCCCOC(=O)CCCCCN(CCO)CCCCCCCC(=O)OC(CCCCCCCC)CCCCCCCC [MOD8, heptadecan-9-yl 8-((2-hydroxyethyl)(6-oxo-6-(undecyloxy)hexyl)amino)octanoate, reference compound]
% EE [1, 9]: 98%
<d>N (nm) [2, 10]: 49 nm
<d>Z (nm) [2, 11]: 73 nm
